Reference: article PMC4160570, “Effects of proarrhythmic drugs on relaxation time and beating pattern in rat engineered heart tissue” (Basic Research in Cardiology, 2014)
Read-outs that look alike come from different tables or passages of the source.

Columns and labels:
[1] = system: rat engineered heart tissue (EHT); assay: Video-optical analysis of contractile parameters of spontaneously beating rat EHTs (50 nM epinephrine); conditions: for significant T2 prolongation (p<0.05 and at least 15 % vs baseline): 1-, 10-, 100-fold FTPC, 50 nM epinephrine, n = 4–8; for effect on 4AP-induced beating irregularity and aftercontractions / T2 values: 4AP 10 mM; for effect on 4AP-induced beating irregularity and aftercontractions: SEA0400 2 µM or JTV519 2 µM; for relaxation remaining prolonged with 4AP in presence of inhibitor: high concentration of 4AP plus SEA0400 or JTV519; for irregular beating as the primary effect: sinusoidal fluctuation of twitch amplitudes, time dependent; for ability to mimic the effect of JTV519 on 4AP-induced changes: flecainide 0.5 µM
rat = conditions: cited from earlier work
mouse = conditions: in vivo; cited from earlier work
[2] = 4AP 10 mM in absence and presence of the blocker, SEA0400 2 µM, JTV519 2 µM

CC(C)N(CCC(C(N)=O)(c1ccccc1)c1ccccn1)C(C)C (stereo not drawn) [Disopyramide]
T2-effective concentrations [1]: 5 fold FTPC | significant T2 prolongation (p<0.05 and at least 15 % vs baseline) [1]: Significant T2 prolongations | LD50 (rat; in vivo): 333 mg∙kg^-1 (rat, p. o.)

COc1ccc2c(c1)CN(C(=O)CCN1CCC(Cc3ccccc3)CC1)CCS2 [JTV519]
effect on the T2-prolonging effect of 4AP [1, 2]: reduced the effect of 4AP | effect on 4AP-induced beating irregularity and aftercontractions [1]: completely abolished beating irregularity and aftercontractions | T2 values ([1]; SEA0400 2 µM, JTV519 2 µM): 80 ms | relaxation remaining prolonged with 4AP in presence of inhibitor [1]: ~ 200%

CCN(CC)CCNC(=O)c1ccc(N)cc1 [Procainamide]
significant T2 prolongation (p<0.05 and at least 15 % vs baseline) [1]: Significant T2 prolongations

O=c1[nH]c2ccccc2n1CCCN1CCC(n2c(=O)[nH]c3cc(Cl)ccc32)CC1 [Domperidone]
significant T2 prolongation (p<0.05 and at least 15 % vs baseline) [1]: Significant T2 prolongations

COc1ccc(CCN2CCC(Nc3nc4ccccc4n3Cc3ccc(F)cc3)CC2)cc1 [Astemizole]
effect on force (group 3) ([1]; 1–100× FTPC): decrease in force | LD50 (mouse): 35 mg∙kg^-1 (mouse, i. v.)

COc1c(N2C[C@@H]3CCCN[C@@H]3C2)c(F)cc2c(=O)c(C(=O)O)cn(C3CC3)c12 [Moxifloxacin]
T2-effective concentrations [1]: 100 fold FTPC | significant T2 prolongation (p<0.05 and at least 15 % vs baseline) [1]: Significant T2 prolongations

Cn1c(=O)c2c(ncn2C)n(C)c1=O [caffeine]
effect on beating rate and twitch ([1]; high concentration of caffeine (5 mM)): reduced beating rate and induced a large and wide twitch

CC(C)COCC(CN(Cc1ccccc1)c1ccccc1)N1CCCC1 (stereo not drawn) [Bepridil]
published IKs IC50 relative to threshold for group 1 or 2 effects [1]: at or below the threshold for group 1 or 2 effects | significant T2 prolongation (p<0.05 and at least 15 % vs baseline) [1]: Significant T2 prolongations | irregular beating as the primary effect [1]: induced irregular beating

CSc1ccc2c(c1)N(CCC1CCCCN1C)c1ccccc1S2 (stereo not drawn) [Thioridazine]
irregular beating as the primary effect [1]: induced irregular beating

CC(C)(C(=O)O)c1ccc(C(O)CCCN2CCC(C(O)(c3ccccc3)c3ccccc3)CC2)cc1 (stereo not drawn) [Fexofenadine]
significant T2 prolongation (p<0.05 and at least 15 % vs baseline) [1]: Significant T2 prolongations

CC[C@H]1OC(=O)[C@H](C)[C@@H](O[C@H]2C[C@@](C)(OC)[C@@H](O)[C@H](C)O2)[C@H](C)[C@@H](O[C@@H]2O[C@H](C)C[C@H](N(C)C)[C@H]2O)[C@](C)(OC)C[C@@H](C)C(=O)[C@H](C)[C@@H](O)[C@]1(C)O [Clarithromycin]
published IC50 values for hERG and Ito relative to threshold for T2 prolongation or irregularity [1]: at or below the threshold for T2 prolongation or irregularity | significant T2 prolongation (p<0.05 and at least 15 % vs baseline) [1]: Significant T2 prolongations | LD50 (rat; in vivo): 1.270 mg∙kg^-1 (rat, p. o.) 850 mg∙kg^-1 (mouse, i. p.) | LD50 (mouse): 1.270 mg∙kg^-1 (rat, p. o.) 850 mg∙kg^-1 (mouse, i. p.)

C/C=C(/C)C(=O)O[C@H]1C(C)=C2[C@H]([C@@H]1OC(=O)CCCCCCC)[C@@](C)(OC(C)=O)C[C@H](OC(=O)CCC)[C@@]1(O)[C@H]2OC(=O)[C@@]1(C)O [Thapsigargin]
effect on time of relaxation, alone ([1]; 3–30 nM): did not affect time of relaxation as such | effect on the T2-prolonging effect of 4AP [1, 2]: increased the T2-prolonging effect of 4AP

CN(C)CCCN1c2ccccc2CCc2ccccc21 [Imipramine]
irregular beating as the primary effect [1]: induced irregular beating

C[C@@H]1CN(c2c(F)c(N)c3c(=O)c(C(=O)O)cn(C4CC4)c3c2F)C[C@H](C)N1 [Sparfloxacin]
significant T2 prolongation (p<0.05 and at least 15 % vs baseline) [1]: Significant T2 prolongations | changes associated with T2 prolongation ([1]; original recording, Supplemental Fig. 4): marked reduction of beating rate and an increase in twitch force

CCN(CC)CC(=O)Nc1c(C)cccc1C [lidocaine]
effect of pure INa blockers on T1 ([1]; data not shown): did not prolong T1

CCCCNc1ccc(C(=O)OCCN(C)C)cc1 [Tetracaine]
effect on the T2-prolonging effect of 4AP [1, 2]: increased the T2-prolonging effect of 4AP | ability to mimic the effect of JTV519 on 4AP-induced changes ([1]; data not shown): did not mimic the effect of JTV519

CCOc1ccc(Oc2ccc(OCc3cc(F)ccc3F)cc2)c(N)c1 [SEA0400]
effect on the T2-prolonging effect of 4AP [1, 2]: reduced the effect of 4AP | effect on 4AP-induced beating irregularity and aftercontractions [1]: completely abolished beating irregularity and aftercontractions | T2 values ([1]; SEA0400 2 µM, JTV519 2 µM): 78 ms | relaxation remaining prolonged with 4AP in presence of inhibitor [1]: ~ 200%

CC(C)NCC(O)c1ccc(NS(C)(=O)=O)cc1 (racemic) [D,L-sotalol]
T2-effective concentrations [1]: 100 fold FTPC | published IKs IC50 relative to threshold for group 1 or 2 effects [1]: at or below the threshold for group 1 or 2 effects | significant T2 prolongation (p<0.05 and at least 15 % vs baseline) [1]: Significant T2 prolongations | LD50 (mouse): 790 mg∙kg^-1 (mouse, i. p.)

Cc1nc2n(c(=O)c1CCN1CCC(c3noc4cc(F)ccc34)CC1)CCCC2 [Risperidone]
LD50 (rat; in vivo): 56,6 mg∙kg^-1 (rat, p. o.)

O=c1[nH]c2ccccc2n1C1CCN(CCCC(c2ccc(F)cc2)c2ccc(F)cc2)CC1 [Pimozide]
LD50 (mouse): 288 mg∙kg^-1 (mouse, p. o.)

CN(CCOc1ccc(NS(C)(=O)=O)cc1)CCc1ccc(NS(C)(=O)=O)cc1 [Dofetilide]
effect on T2 at 100-fold IC50 concentrations [1]: lack of effect | effect on the parameters studied (group 4) ([1]; 1–100× FTPC): without any effect on the parameters studied

C[N+](C)(C)CCOC(N)=O [carbachol]
effect on frequency of beating in the burst ([1]; carbachol 1 µM added to epinephrine 50 nM): reversed epinephrine effect and induced partial stop | EHTs that stopped spontaneous beating ([1]; carbachol 1 µM plus epinephrine): 3/7

CCN(CC)CCCN(c1ccccc1)C1Cc2ccccc2C1 [Aprindine]
significant T2 prolongation (p<0.05 and at least 15 % vs baseline) [1]: Significant T2 prolongations

CC/C(=C(\c1ccccc1)c1ccc(OCCN(C)C)cc1)c1ccccc1 [Tamoxifen]
LD50 (rat; p. o.): 4.100 mg∙kg^-1 (rat, p. o.)

CN(C)CCOC(c1ccccc1)c1ccccc1 [Diphenhydramine]
effect on contraction time T1 (group 3) ([1]; 1–100× FTPC): prolongation of contraction time T1

COc1cc(N)c(Cl)cc1C(=O)NC1CCN(CCCOc2ccc(F)cc2)CC1OC (stereo not drawn) [Cisapride]
significant T2 prolongation (p<0.05 and at least 15 % vs baseline) [1]: Significant T2 prolongations | LD50 (rat; in vivo): 4.166 mg∙kg^-1 (rat, p. o.)

CCCCCCCN(CC)CCCC(O)c1ccc(NS(C)(=O)=O)cc1 (stereo not drawn) [Ibutilide]
effect on T2 at 100-fold IC50 concentrations [1]: lack of effect | effect on the parameters studied (group 4) ([1]; 1–100× FTPC): without any effect on the parameters studied

CNCCCN1c2ccccc2CCc2ccccc21 [Desipramine]
significant T2 prolongation (p<0.05 and at least 15 % vs baseline) [1]: Significant T2 prolongations | irregular beating as the primary effect [1]: induced irregular beating | LD50 (mouse): 740 mg∙kg^-1 (mouse, p. o.)

O=C1NCCN1CCN1CCC(c2cn(-c3ccc(F)cc3)c3ccc(Cl)cc23)CC1 [Sertindole]
effect on contraction time T1 (group 3) ([1]; 1–100× FTPC): prolongation of contraction time T1 | LD50 (mouse): 420 mg∙kg^-1 (mouse, i. p.)

CC(C)(C)c1ccc(C(O)CCCN2CCC(C(O)(c3ccccc3)c3ccccc3)CC2)cc1 (stereo not drawn) [Terfenadine]
effect on T2 (group 3) ([1]; 1–100× FTPC): shortening of T2

O=C(NCC1CCCCN1)c1cc(OCC(F)(F)F)ccc1OCC(F)(F)F (stereo not drawn) [Flecainide]
significant T2 prolongation (p<0.05 and at least 15 % vs baseline) [1]: Significant T2 prolongations | ability to mimic the effect of JTV519 on 4AP-induced changes ([1]; data not shown): did not mimic the effect of JTV519 | LD50 (rat; in vivo): 1.346 mg∙kg^-1 (rat, p. o.)

O=C(CCCN1CCC(O)(c2ccc(Cl)cc2)CC1)c1ccc(F)cc1 [Haloperidol]
effect on contraction time T1 (group 3) ([1]; 1–100× FTPC): prolongation of contraction time T1 | LD50 (rat; in vivo): 128 mg∙kg^-1 (rat, p. o.) 30 mg∙kg^-1 (mouse, i. p.) | LD50 (mouse): 128 mg∙kg^-1 (rat, p. o.) 30 mg∙kg^-1 (mouse, i. p.)

NC1=N[C@H](O)[C@H]2[C@H]3O[C@]4(O)O[C@@H]([C@@H](O)[C@@]2(N1)[C@@H]4O)[C@]3(O)CO [Tetrodotoxin]
effect of pure INa blockers on T1 [1]: did not prolong T1 | effect on the T2-prolonging effect of 4AP [1]: increased the T2-prolonging effect of 4AP

CC(C)(C)c1ccc(C(=O)CCCN2CCC(OC(c3ccccc3)c3ccccc3)CC2)cc1 [Ebastine]
significant T2 prolongation (p<0.05 and at least 15 % vs baseline) [1]: Significant T2 prolongations

CC[C@H](CO)Nc1nc(NCc2ccccc2)n2ncc(C(C)C)c2n1 [GP 0210]
Effect on EHT contractility ([1]; NCEs tested at 0.1, 1, 10 µM): -

OC(c1cc(C(F)(F)F)nc2c(C(F)(F)F)cccc12)C1CCCCN1 (stereo not drawn) [Mefloquine]
effect on contraction time T1 (group 3) ([1]; 1–100× FTPC): prolongation of contraction time T1 | LD50 (rat; in vivo): 880 mg∙kg^-1 (rat, p. o.)

O=C1NC(=O)C(c2ccccc2)(c2ccccc2)N1 [Phenytoin]
EHT-effective concentrations relative to hERG IC50 [1]: relaxation slowing occurred at concentrations below hERG IC50 | concentration at which T2 is prolonged [1]: 1 × FTPC | significant T2 prolongation (p<0.05 and at least 15 % vs baseline) [1]: Significant T2 prolongations | LD50 (rat; in vivo): 1.635 mg∙kg^-1 (rat, p. o.) 100 mg∙kg^-1 (mouse, i. p.) | LD50 (mouse): 1.635 mg∙kg^-1 (rat, p. o.) 100 mg∙kg^-1 (mouse, i. p.)
